Measured values as given in patent publication EP4786454A1, “HETEROARYL DERIVATIVE AND USE THEREOF” (priority 2023, dated 2025).

Key:
[1] = Stability in liver microsomes (human); format: in vitro ADME; conditions: h (human liver microsomes), 0.5 mg/mL, read-out: MMS Clint
Procedure: (§1) The purpose of this study was to evaluate the phase I metabolic stability of the assay sample in liver microsomes from CD-1 mice, Sprague-Dawley (SD) rats, beagle dogs, cynomolgus monkeys, and human.
(§2) The animal and human liver microsomes used in this assay system were purchased from Xenotech, Corning, or other qualified suppliers.
(§3) Preparation of buffer: 73.21 g of potassium phosphate dibasic trihydrate and 10.78 g of potassium dihydrogen phosphate were dissolved in 4000 mL of ultrapure water. The pH of the solution was adjusted to the range of 7.40 ± 0.10 using 10.0% phosphoric acid or 1.00 M potassium hydroxide. Its final concentration was 100 mM.
(§4) Preparation of working solutions: An assay sample powder was prepared into a 10.0 mM stock solution with DMSO, and then further diluted with a suitable organic solvent. The control compounds testosterone, diclofenac, and propafenone were prepared into 10.0 mM stock solutions using DMSO, and then further diluted with a suitable organic solvent.
(§5) Preparation of liver microsome solution: Microsomes of various species were diluted with 100 mM potassium phosphate buffer to a working solution of 0.56 mg/mL. The final concentration of microsomes in the reaction system was 0.500 mg/mL. Detailed preparation procedures were described in the experimental records.
(§6) Preparation of reduced nicotinamide adenine dinucleotide phosphate (NADPH) solution: An appropriate amount of reduced nicotinamide adenine dinucleotide phosphate was dissolved in magnesium chloride solution, and the mixture was shaken to mix well. The final concentrations in the reaction system were 1.00 mM NADPH and 1.00 mM magnesium chloride, respectively. Detailed preparation procedures were described in the experimental records.
(§7) Preparation of stop solution: The stop solution was prepared using acetonitrile containing internal standards (tolbutamide and labetalol). The prepared stop solution was stored at 2.0 to 8.0 °C in a refrigerator. Detailed preparation procedures were described in the experimental records. […]

[2] = Stability in liver microsomes (monkey); format: in vitro ADME, cynomolgus monkeys; conditions: c (cynomolgus monkey liver microsomes), 0.5 mg/mL, read-out: MMS Clint
Procedure: as §1, §2, §3, §4, §5, §6, §7

[3] = Kinetic solubility in 50 mM phosphate buffer, LC-UV; format: physicochemical; conditions: room temperature, 24 hours
Procedure: The purpose of this assay was to determine the kinetic solubility of the compounds after incubation at room temperature in a 50 mM phosphate buffer solution with a pH of 2.0, 6.5, and 7.4 for 24 hours using a direct ultraviolet method.
10 µL of DMSO stock solutions of a test compound and control compound were added to a 96-well plate. 490 µL of the test medium was added to the 96-well plate, respectively. The plate was sealed, and vortexed for 2 minutes. The incubation concentration of a sample was 200 µM, wherein, DMSO accounted for 2%. The 96-well plate was placed on a shaker, and incubated at room temperature and 800 rpm for 24 hours to reach dissolution equilibrium. After the incubation, the sample was put into a centrifuge, and centrifuged at 25 °C and 4000 rpm for 10 minutes. The supernatant from the centrifuged sample was transferred to a filter plate, centrifuged at 4000 rpm for 5 minutes, and filtered to give filtrate. The concentration of the filtrate was analyzed using linear quantitative analysis with LC-UV (the sample was diluted as needed).
Data of the assay were acquired and processed using Empower software. Linear regression analysis was performed by plotting the relationship between the peak area and their concentrations in µM.

Compound	CLint scaled at 1 µM [1]	CLint scaled at 1 µM [2]	KSY ([3]; pH 2.0, 50 mM phosphate buffer)	KSY ([3]; pH 6.5, 50 mM phosphate buffer)	KSY ([3]; pH 7.4, 50 mM phosphate buffer)
CC(C)(C)CC(=O)Nc1nc2c(F)cc(C#N)cn2c1-c1ccc(OC(F)(F)F)cc1 [Compound 1]	30 mL/min/kg	130 mL/min/kg	–	–	–
CC(C)(C)CC(=O)Nc1nc2c(F)cc(C#N)cn2c1C1=CCCC1 [Compound 3]	19 mL/min/kg	129 mL/min/kg	3.78 µg/mL	3.68 µg/mL	4.43 µg/mL
CC(C)(C)CC(=O)Nc1nc2c(F)cc(C#N)cn2c1C12CC(C1)C2 [Compound 5]	< 8.6 mL/min/kg	15.3 mL/min/kg	4.46 µg/mL	4.57 µg/mL	4.79 µg/mL
CC(C)(C)CC(=O)Nc1nc2c(C(F)(F)F)cc(C#N)cn2c1C12CC(C1)C2 [Compound 6]	–	–	21.7 µg/mL	20.9 µg/mL	21.4 µg/mL
